Earlier results in patent publication US20080044356A1, “Assemblies of Oligomeric Amyloid Beta Protein and Uses Thereof” (Regents of the University of Minnesota, priority 2004, published 2008).
Where two headings read alike, the source gives them in different places.

Key:
rats [1] = system: rats
[2] = system: Alzheimer's disease (AD) patients
rats [3] = system: rats; remark: listed apart in the source
[4] = congenitally hypothyroid rats with replacement treatment
[5] = animals treated in utero (congenital hypothyroidism), versus controls

**Q.** Which switching errors (rats [1]; 1.0 mg/kg IP) does the source give for `CN1[C@@H]2CC[C@H]1C[C@@H](OC(=O)C(CO)c1ccccc1)C2` (stereo partly shown) [atropine] here?
**A.** The switching errors was “increases switching errors significantly”.

**Q.** And the “ALCR Cognitive Effect” value (rats [1]; route IP)?
**A.** The value was “Increased errors”.

**Q.** And the “ALCR Running Response Rate” value (rats [1]; route IP)?
**A.** The value was “No effect”.

**Q.** What about the “ALCR Running Response Rate” value (rats [1]; route IP, 1 mg/kg) of the same compound?
**A.** Its value is “Reduced”.

**Q.** What does the source list for `CC(C)Cc1ccc(C(C)C(=O)O)cc1` (stereo not shown) [ibuprofen]?
**A.** effect on Aβ-induced ALCR performance decrements (rats [1]; after IH injection of pre-aggregated Aβ): mitigated these effects; ALCR Cognitive Effect (rats [1]; route PO): Normalized errors; ALCR Running Response Rate (rats [1]; route PO): No effect

**Q.** Which results are given for “AN-1792: beta amyloid peptide 1-42, used for active immunization”?
**A.** adverse reaction to active immunization ([2]; human, in vivo): risk of encephalitis; cognitive function ([2]; immunization, subset of AD patients): encouraging preliminary reports

**Q.** Which results are given for `N[C@@H](Cc1cc(I)c(Oc2cc(I)c(O)c(I)c2)c(I)c1)C(=O)O` [thyroxin, thyroxine]?
**A.** motivation for food in the PR task (rats [3]; [4]): performed equally well; learning to criterion and error rates in the ALCR task (rats [1]; [4]): normal learning to criterion and error rates

**Q.** For `Cn1cc[nH]c1=S` [methimzole, methimazole], which “motivation for food in the PR task” value (rats [3]; [5]) is on record?
**A.** Its value is “not different from that of controls”.

**Q.** And the “Direct test of Motivation” value (rats [3]; route PO, FOA, PR assessments)?
**A.** Its value is “No effect”.

**Q.** And the “learning to criterion in the ALCR task” value (rats [1]; [5])?
**A.** The value was “significantly slower learning to criterion”.

**Q.** What about the “ALCR Cognitive Effect” value (rats [1]; route PO) of the same compound?
**A.** The value was “Slow learning”.

**Q.** And the “ALCR Running Response Rate” value (rats [1]; route PO)?
**A.** The value was “No effect”.
